Laboratory results taken from US6756054B1, “Polycationic sterol derivatives as transfection agents” (IC-VEC Limited, priority 1996, dated 2004).

Assays:
CFT1 cells = test: in vitro transfection of CFT1 cells with pCF1-βGal plasmid by cationic liposomes (DC-Chol analogue/DOPE), β-galactosidase expression; assay type: cell-based; conditions: for rank of DC-Chol analogues for in vitro gene delivery: most effective triamine, tetramine and pentamine; for gene delivery efficiency in vitro over and above DC-Chol/DOPE liposomes: pCF1-βGal plasmid, liposomes with DOPE, relative to DC-Chol/DOPE liposomes formulated in a similar way (FIG. 24)
Method: FIG. 23 is an example of in vitro optimisation of pCF1-βGal plasmid transfection of CFT1 cells in vitro using complexes of pCF1-βGal and cationic liposomes formulated from DC-Chol analogue 8f′ and DOPE 2 (1:1) molar ratio. CFT1 cells were transfected with an array of different cationic liposome and plasmid ratios in a 96-well plate. The extent of transfection in each well was determined after 2 days by measuring the levels of β-galactosidase expression. Plasmid DNA concentration is expressed as the concentration of nucleotides assuming an average nucleotide FWt of 330. Cationic liposome concentration is expressed in terms of the concentration of the constituent DC-Chol analogue 8f′ alone.
FIG. 24 presents rank order of DC-Chol polyamine analogues transfecting CFT1 cells in vitro with the pCF1-βGal plasmid. Gene delivery activity is expressed as a proportion of the activity measured with standard liposomes containing DC-Chol 1 and DOPE 2. The data shown are the averages of four separate experiments, each performed in triplicate.
The ratios in curved brackets refer to the DC-Chol analogue:DOPE 2 molar ratio used to formulate the liposomes. The numbers in square brackets refer to compound serial numbers. Where appropiate DC-Chol analogue name abbreviations are also included (see experimental).
(§1) The ability of cationic liposomes containing the different DC-Chol polyamine analogues to mediate gene delivery was analysed both in vitro and in vivo. Cationic liposomes were formulated by hydrating a dried lipid film, containing DC-Cholanalogue and DOPE 2 in an appropriate molar ratio of either 1:0, 1:1, 1:2 or 2:1 respectively. and vortex mixing.^[32] Cationic liposome/plasmid DNA complexes were then prepared by adding appropriately diluted cationic liposome suspensions into equal volumes of aqueous plasmid DNA solutions at 30° C. and allowing the mixture to equilibrate to ambient temperature over 15 min.^[32] In vitro studies were then performed with immortalised cystic fibrosis airway epithelial (CFT1) cells followed by in vivo studies in which cationic liposome/plasmid DNA complexes were instilled intranasally into the lungs of female BALB/c mice.^[32] Typically, cationic liposome gene delivery was first optimised in vitro so as to establish the best molar ratio of cationic liposome to plasmid DNA (DNA concentration was expressed as nucleotide concentration) as well as the best absolute quantities of both, as illustrated (FIG. 23). This optimised combination was then tested in vivo. The in vitro results are shown (FIG. 24). […] The analogues were 8a′, 8b′, 8e′, 8f′, 13a′ and 17b′, the first four being triamines, the fifth a tetramine and the sixth a pentamine. With one exception, 8f′, these polyamine analogues contain inter-nitrogen methylene group spacings not normally associated with the natural polyamines spermidine 18′ (see for example FIG. 29), spermine 19′ (see for example FIG. 29) and pentamine 20′ (see for example FIG. 29) upon which these structures are based. In vivo (FIG. 25), the best DC-Chol analogues were 13c′, 13f′ and especially 17a′. Both 17a′ and 13c′ also contain unnatural methylene group spacings.
For the in vitro and in vivo tests, a dried lipid film containing the given DC-Chol analogue and DOPE 2 (in either a 1:0, 1:1, 1:2 or 2:1 respective molar ratio), was hydrated for 10 min in sterile pyrogen-free water and then liposomes were produced by 2 min vortex mixing. The average diameter was between 200-400 nm.^[32] Cationic liposomes containing DC-Chol 1 and DOPE 2 were formulated in the same way described previously.^[24, 36]
Cationic liposome/plasmid DNA complexes were then prepared as follows.
Both cationic liposome suspensions and DNA (either pCF1-βGal plasmid expressing β-galactosidase or pCF1-CAT expressing chloramphenicol acetyl transferase)^[32] solutions were separately pre-incubated for 5 min at 30° C., before being diluted to the appropriate final concentrations and then combined. […]

[1] = tested on: lungs of female BALB/c mice; test: in vivo transfection of mouse lung with pCF1-CAT plasmid by intranasally instilled cationic liposome/DNA complexes, CAT activity in lung homogenates; conditions: for rank of DC-Chol analogues for in vivo gene delivery: female BALB/c mice lung, pCF1-CAT plasmid, optimal formulation, CAT activity after 2 days (FIG. 25)
Method: FIG. 25 presents the rank order of DC-Chol polyamine analogues transfecting the lungs of female BALB/c mice with the pCF1-CAT plasmid. Mice were instilled with a solution of the plasmid (4 mM nucleotide concentration) and the optimal quantity and ratio of cationic liposome, in a total volume of 100 μl. Gene delivery activity was determined as a function of chloramphenicol acetyl transferase activity in lung homogenates after 2 days.
Data points were from separate experiments with each optimal formulation tested in 4 BALB/c mice. The ratios in curved brackets refer to the DC-Chol analogue:DOPE 2 molar ratio. The numbers in square brackets refer to compound serial numbers. Where appropiate DC-Chol analogue name abbreviations are also included (see experimental).
as §1, with “spacings. […]” for “spacings.”

[2] = reported; cited from earlier work
[3] = mouse lung, pCF1-CAT plasmid (FIG. 25)

Compound | rank of DC-Chol analogues for in vitro gene delivery (CFT1 cells) | gene delivery efficiency in vitro over and above DC-Chol/DOPE liposomes (CFT1 cells) | rank of DC-Chol analogues for in vivo gene delivery [1] | other results
CC(C)CCCC(C)C1CCC2C3CC=C4CC(OC(=O)NCCCNCCCN)CCC4(C)C3CCC12C (centres unmarked) [8e′, 4-aza-N′-cholesteryloxycarbonyl-1,7-heptanediamine] | most effective | significant improvements |  | 
CC(C)CCC[C@@H](C)[C@H]1CC[C@H]2[C@@H]3CC=C4C[C@@H](OC(=O)NCCNCCCNCCN)CC[C@]4(C)[C@H]3CC[C@]12C [13a′, N′-cholesteryloxy-carbonyl-3,7-diaza-1,9-nonanediamine] | most effective | significant improvements |  | 
CC(C)CCCC(C)C1CCC2C3CC=C4CC(OC(=O)NCCCNCCCCNCCCN)CCC4(C)C3CCC12C (centres unmarked) [13f′, N^1-cholesteryloxy-carbonyl-4,9-diaza-1,12-dodecanediamine] |  |  | best and most effective | 
CCCCCCCCCCCCOCC(C[N+](C)(C)CCCN)OCCCCCCCCCCCC.[Br-] (centres unmarked) [GAP-DLRIE, (B1)-N-(3-aminopropyl)-N,N-dimethyl-2,3-bis-(dodecyloxy)-1-propanaminium bromide] |  |  |  | in vivo efficacy relative to plasmid DNA alone [2]: about 100 fold
N^10-cholesteryloxycarbonyl-4,8,13-triaza-1,16-hexadecanediamine [17b′] | most effective | significant improvements |  | 
N^15-cholesteryloxycarbonyl-3,7,12-triaza-1,15-pentadecanediamine [17a′] |  |  | best and most effective | effectiveness in mouse lung relative to DC-Chol 1 [1, 3]: about 100 fold; effectiveness in mouse lung relative to plasmid DNA alone [1, 3]: approx 500 fold
